Patent US10890591B2, “Methods and dose packs for monitoring medication adherence” (Synapse Biosciences, LLC, priority 2016, dated 2021)
Read-outs that look alike come from different tables or passages of the source.

Legend:
clinical [1] = details: human, in vivo
Text: (§1) All other markers were obtained from commercial sources. Urine and saliva were collected prior to each day's dosing of marker confirming the presence or absence of markers before the experiment started. […] The presence of all 7 markers at day 8 would confirm that all markers were ingested in the previous 7 day one week period.
(§2) Healthy volunteers with no recent exposure to the markers who were not currently taking prescribed medications, OTC medications or vitamins and supplements were chosen. Exposure to the markers more than one month before starting the experiment was allowed and no dietary restrictions were required. Subjects were given a 7 day blister pack with markers sequenced in the order above. Subjects verbally confirmed they understood the urine and saliva collection procedures. Instructions printed on the marker blister pack instructed subjects to collect urine and saliva each morning before they took the daily dose of marker. They were also instructed to take the daily dose of marker close to the same time each day.

clinical [2] = assay: clinical
Text: as §1, §2

[3] = human, in vivo
clinical [4] = details: human, in vivo, Urine Results
[5] = Multiple Marker Experiment 2: urine samples, simulated non-adherence (one marker dose skipped per subject), LC-MS/MS; details: for Subject B, Urine Results / Subject C, Urine Results: collected before that day's dose; for Subject B, Urine Results / Subject C, Urine Results / concentration at 8 day: other markers dosed once; for concentration at 8 day: Urine Results, Day 8 sample
[6] = human, in vivo, Average of Urine Samples
[7] = human, in vivo, Subject A, Urine Results
[8] = human, in vivo, Subject B, Urine Results
[9] = Day 1 sample, collected before that day's dose, Experiment #1, adherent with all markers, each marker dosed once
[10] = Day 2 sample, collected before that day's dose, Experiment #1, adherent with all markers, each marker dosed once
[11] = Day 3 sample, collected before that day's dose, Experiment #1, adherent with all markers, each marker dosed once
[12] = Day 4 sample, collected before that day's dose, Experiment #1, adherent with all markers, each marker dosed once
[13] = Day 5 sample, collected before that day's dose, Experiment #1, adherent with all markers, each marker dosed once
[14] = Day 6 sample, collected before that day's dose, Experiment #1, adherent with all markers, each marker dosed once
[15] = Day 7 sample, collected before that day's dose, Experiment #1, adherent with all markers, each marker dosed once
[16] = Day 8 sample, Experiment #1, adherent with all markers, each marker dosed once

NC(N)=Nc1nc(CSCCC(N)=NS(N)(=O)=O)cs1 [Famotidine]
concentration at 1 day (clinical [1]): 0 ng/mL | concentration at 2 day (clinical [1]): 0 ng/mL | concentration at 3 day (clinical [1]): 0 ng/mL | concentration at 4 day (clinical [1]): 0 ng/mL | concentration at 5 day (clinical [1]): 5.71 ng/mL | concentration at 6 day (clinical [1]): 0.34 ng/mL | concentration at 7 day (clinical [1]): 0 ng/mL | concentration at 8 day (clinical [1]): 0 ng/mL | Subject C, Urine Results (clinical [2]; human, in vivo, 1 day): 0 ng/m | Subject D, Urine Results (clinical [2]; human, in vivo, 1 day): 0 ng/m | Subject C, Urine Results (clinical [2]; human, in vivo, 2 day): 0 ng/m | Subject D, Urine Results (clinical [2]; human, in vivo, 2 day): 0 ng/m | Subject C, Urine Results (clinical [2]; human, in vivo, 3 day): 0 ng/m | Subject D, Urine Results (clinical [2]; human, in vivo, 3 day): 0 ng/m | Subject C, Urine Results (clinical [2]; human, in vivo, 4 day): 0 ng/m | Subject D, Urine Results (clinical [2]; human, in vivo, 4 day): 0 ng/m | Subject C, Urine Results (clinical [2]; human, in vivo, 5 day): 968 ng/m | Subject D, Urine Results (clinical [2]; human, in vivo, 5 day): 3820 ng/m | Subject C, Urine Results (clinical [2]; human, in vivo, 6 day): 165 ng/m | Subject D, Urine Results (clinical [2]; human, in vivo, 6 day): 260 ng/m | Subject C, Urine Results (clinical [2]; human, in vivo, 7 day): 122 ng/m | Subject D, Urine Results (clinical [2]; human, in vivo, 7 day): 37.3 ng/m | Subject C, Urine Results (clinical [2]; human, in vivo, 8 day): 78.9 ng/m | Subject D, Urine Results (clinical [2]; human, in vivo, 8 day): 19.4 ng/m | concentration at 1 day (clinical [2]; [6]): 0 ng/mL | concentration at 2 day (clinical [2]; [6]): 0 ng/mL | concentration at 3 day (clinical [2]; [6]): 0 ng/mL | concentration at 4 day (clinical [2]; [6]): 0 ng/mL | concentration at 5 day (clinical [2]; [6]): 1560 ng/mL | concentration at 6 day (clinical [2]; [6]): 203 ng/mL | concentration at 7 day (clinical [2]; [6]): 64.5 ng/mL | concentration at 8 day (clinical [2]; [6]): 43.2 ng/mL | concentration at 1 day (clinical [2]; [7]): 0 ng/mL | concentration at 2 day (clinical [2]; [7]): 0 ng/mL | concentration at 3 day (clinical [2]; [7]): 0 ng/mL | concentration at 4 day (clinical [2]; [7]): 0 ng/mL | concentration at 1 day (clinical [2]; [8]): 0 ng/mL | concentration at 2 day (clinical [2]; [8]): 0 ng/mL | concentration at 3 day (clinical [2]; [8]): 0 ng/mL | concentration at 4 day (clinical [2]; [8]): 0 ng/mL | course of urine levels relative to dosing (clinical [2]; in vivo): zero before dosing, peaked the day after dosing and slowly decreased over time | course of urine levels relative to dosing [3]: zero before dosing, peaked the day after dosing and slowly decreased over time | concentration at 1 day (clinical [4]; Subject A): 0 ng/mL | concentration at 2 day (clinical [4]; Subject A): 0 ng/mL | concentration at 3 day (clinical [4]; Subject A): 0 ng/mL | concentration at 4 day (clinical [4]; Subject A): 0 ng/mL | concentration at 1 day (clinical [4]; Subject B): 0 ng/mL | concentration at 2 day (clinical [4]; Subject B): 0 ng/mL | concentration at 3 day (clinical [4]; Subject B): 0 ng/mL | concentration at 4 day (clinical [4]; Subject B): 0 ng/mL | concentration at 1 day (clinical [4]; Subject C): 0 ng/mL | concentration at 2 day (clinical [4]; Subject C): 0 ng/mL | concentration at 3 day (clinical [4]; Subject C): 0 ng/mL | concentration at 4 day (clinical [4]; Subject C): 0 ng/mL | concentration at 5 day (clinical [4]; Subject C): 3830 ng/mL | concentration at 6 day (clinical [4]; Subject C): 429 ng/mL | concentration at 7 day (clinical [4]; Subject C): 390 ng/mL | concentration at 8 day (clinical [4]; Subject C): 139 ng/mL | concentration at 3 day (clinical [4]; Subject D): 0 ng/mL | concentration at 4 day (clinical [4]; Subject D): 0 ng/mL | concentration at 5 day (clinical [4]; Subject D): 5050 ng/mL | concentration at 6 day (clinical [4]; Subject D): 1670 ng/mL | concentration at 8 day (clinical [4]; Subject D): 27.8 ng/mL

CN(C)C(=O)C(CCN1CCC(O)(c2ccc(Cl)cc2)CC1)(c1ccccc1)c1ccccc1 [Loperamide]
concentration at 1 day (clinical [1]): 0 ng/mL | concentration at 2 day (clinical [1]): 0 ng/mL | concentration at 3 day (clinical [1]): 0.431 ng/mL | concentration at 4 day (clinical [1]): 0.18 ng/mL | concentration at 5 day (clinical [1]): 0.257 ng/mL | concentration at 6 day (clinical [1]): 0.112 ng/mL | concentration at 7 day (clinical [1]): 0.0922 ng/mL | concentration at 8 day (clinical [1]): 0.0265 ng/mL | Subject A, Urine Results (clinical [2]; [9]): 0 ng/mL | Subject B, Urine Results (clinical [2]; [9]): 0 ng/mL | Subject C, Urine Results (clinical [2]; [9]): 0 ng/m | Subject D, Urine Results (clinical [2]; [9]): 0 ng/m | Subject A, Urine Results (clinical [2]; [10]): 0 ng/mL | Subject B, Urine Results (clinical [2]; [10]): 0 ng/mL | Subject C, Urine Results (clinical [2]; [10]): 0 ng/m | Subject D, Urine Results (clinical [2]; [10]): 0 ng/m | Subject A, Urine Results (clinical [2]; [11]): 28.4 ng/mL | Subject B, Urine Results (clinical [2]; [11]): 206 ng/mL | Subject C, Urine Results (clinical [2]; [11]): 75.2 ng/m | Subject D, Urine Results (clinical [2]; [11]): 110 ng/m | Average of Urine Samples (clinical [2]; Day 3 sample, collected before that day's dose, average of subjects A, B, C, D, Experiment 1, each marker dosed once): 104.9 ng/mL | Subject A, Urine Results (clinical [2]; [12]): 98.4 ng/mL | Subject B, Urine Results (clinical [2]; [12]): 26.8 ng/mL | Subject C, Urine Results (clinical [2]; [12]): 23.7 ng/m | Subject D, Urine Results (clinical [2]; [12]): 100 ng/m | Average of Urine Samples (clinical [2]; Day 4 sample, collected before that day's dose, average of subjects A, B, C, D, Experiment 1, each marker dosed once): 62.225 ng/mL | Subject A, Urine Results (clinical [2]; [13]): 31.6 ng/mL | Subject B, Urine Results (clinical [2]; [13]): 6.94 ng/mL | Subject C, Urine Results (clinical [2]; [13]): 7.11 ng/m | Subject D, Urine Results (clinical [2]; [13]): 18.6 ng/m | Average of Urine Samples (clinical [2]; Day 5 sample, collected before that day's dose, average of subjects A, B, C, D, Experiment 1, each marker dosed once): 16.0625 ng/mL | Subject A, Urine Results (clinical [2]; [14]): 24.1 ng/mL | Subject B, Urine Results (clinical [2]; [14]): 5.5 ng/mL | Subject C, Urine Results (clinical [2]; [14]): 5.02 ng/m | Subject D, Urine Results (clinical [2]; [14]): 6.37 ng/m | Average of Urine Samples (clinical [2]; Day 6 sample, collected before that day's dose, average of subjects A, B, C, D, Experiment 1, each marker dosed once): 10.2475 ng/mL | Subject A, Urine Results (clinical [2]; [15]): 0.035 ng/mL | Subject B, Urine Results (clinical [2]; [15]): 2.33 ng/mL | Subject C, Urine Results (clinical [2]; [15]): 2.41 ng/m | Subject D, Urine Results (clinical [2]; [15]): 5.8 ng/m | Average of Urine Samples (clinical [2]; Day 7 sample, collected before that day's dose, average of subjects A, B, C, D, Experiment 1, each marker dosed once): 2.644 ng/mL | Subject C, Urine Results (clinical [2]; [16]): 1.89 ng/m | Subject D, Urine Results (clinical [2]; [16]): 2.71 ng/m | course of urine levels relative to dosing (clinical [2]; Experiment 1, days 1-8): zero before dosing, peaked the day after dosing and slowly decreased over time | concentration at 1 day (clinical [2]; human, in vivo): 0 ng/mL | concentration at 2 day (clinical [2]; human, in vivo): 0 ng/mL | concentration at 8 day (clinical [2]; human, in vivo, Average of Urine Samples, Day 8 sample, average of subjects A, B, C, D, Experiment 1, each marker dosed once): 1.18 ng/mL | concentration at 8 day (clinical [2]; human, in vivo, Subject A, Urine Results, Day 8 sample, Experiment #1, adherent with all markers, each marker dosed once): 0.022 ng/mL | concentration at 8 day (clinical [2]; human, in vivo, Subject B, Urine Results, Day 8 sample, Experiment #1, adherent with all markers, each marker dosed once): 0.107 ng/mL | Subject B, Urine Results ([5]; Day 1 sample, Experiment #2, subject B skipped diphenhydramine on day 5): 0 ng/mL | Subject C, Urine Results ([5]; Day 1 sample, Experiment #2, subject C skipped Loperamide on day 2): 0 ng/mL | Subject B, Urine Results ([5]; Day 2 sample, Experiment #2, subject B skipped diphenhydramine on day 5): 0 ng/mL | Subject C, Urine Results ([5]; Day 2 sample, Experiment #2, subject C skipped Loperamide on day 2): 0 ng/mL | Subject B, Urine Results ([5]; Day 3 sample, Experiment #2, subject B skipped diphenhydramine on day 5): 209 ng/mL | Subject C, Urine Results ([5]; Day 3 sample, Experiment #2, subject C skipped Loperamide on day 2): 0 ng/mL | Subject B, Urine Results ([5]; Day 4 sample, Experiment #2, subject B skipped diphenhydramine on day 5): 101 ng/mL | Subject C, Urine Results ([5]; Day 4 sample, Experiment #2, subject C skipped Loperamide on day 2): 0 ng/mL | Subject B, Urine Results ([5]; Day 5 sample, Experiment #2, subject B skipped diphenhydramine on day 5): 32.3 ng/mL | Subject C, Urine Results ([5]; Day 5 sample, Experiment #2, subject C skipped Loperamide on day 2): 0 ng/mL | Subject B, Urine Results ([5]; Day 6 sample, Experiment #2, subject B skipped diphenhydramine on day 5): 13.8 ng/mL | Subject C, Urine Results ([5]; Day 6 sample, Experiment #2, subject C skipped Loperamide on day 2): 0 ng/mL | Subject B, Urine Results ([5]; Day 7 sample, Experiment #2, subject B skipped diphenhydramine on day 5): 12.8 ng/mL | Subject C, Urine Results ([5]; Day 7 sample, Experiment #2, subject C skipped Loperamide on day 2): 0 ng/mL | course of urine levels relative to dosing ([5]; Experiment 2, days 1-8): zero before dosing, peaked the day after dosing and slowly decreased over time | concentration at 1 day ([5]; human, in vivo): 0 ng/mL | concentration at 2 day ([5]; human, in vivo): 0 ng/mL | concentration at 8 day ([5]; human, in vivo, Subject B, Experiment #2, subject B skipped diphenhydramine on day 5): 2.92 ng/mL | concentration at 8 day ([5]; human, in vivo, Subject C, Experiment #2, subject C skipped Loperamide on day 2): 0 ng/mL
